Reference: patent US20090222217A1, “Method of calculating environment risk of a chemical in soil” (AMSTED Industries Inc., priority 2008, published 2009)

Assays:
[1] = published sources; cited from earlier work
[2] = sand, bulk density 1.8 g/cm^3, effective porosity 0.25
Experimental: Once the distribution coefficient is calculated, the Retardation Factor can be calculated using Equation 2.
where: R is the retardation factor; ρb=bulk density of aquifer matrix (g/cm^3); Kd=distribution coefficient (mL·g^−1); η=effective porosity

[3] = sand, Foc 0.0003 mg/mg; Kd=Foc×Koc
Experimental: To obtain a value to represent the mobility of each compound, two variables are used: Henry's Law constant (H), which focuses on the physical chemistry of the chemical and the retardation factor (R), which focuses on the physical and chemical characteristics of the geological environment. The retardation factor was calculated by first calculating the distribution coefficient using Equation 1.
Values for the organic carbon partition coefficient can be obtained from location-specific testing of soil or from various published sources. And the fraction of organic carbon in soil can be obtained from location-specific testing of soil or from various published sources.

[4] = more conservative of carcinogenic or chronic, oral or dermal pathway; published sources; cited from earlier work
[5] = M=(H)(R), sand
Description: With Henry's Law constant and the retardation factor in place, the mobility of a specific compound is expressed as Equation (4):
where: M=mobility; H=Henry's Law constant; R=retardation factor

Compound: c1ccccc1 [benzene]
- Henry's Law constant (H) [1]: 0.228 atm.·mol^−1·m^−3
- retardation factor (R) [2]: 1.13
- Kd, distribution coefficient [3]: 0.0177 mL/g
- toxicity value (T) [4]: 0.04 mg/kg-day^−1
- mobility factor (M) [5]: 0.2576
